Data reported in ChEMBL document CHEMBL3045459 (Med Chem Res, 2013).
≈ marks a conversion by molar mass, not a printed value. Calls of active or inactive are those of the source. The calls are words filed in the database; no cut-off is given here.

Assays:
Type in all cases: functional
Staphylococcus aureus = assay: Antibacterial activity against Staphylococcus aureus assessed as growth inhibition after 24 hr by agar well diffusion method
Aspergillus fumigatus = assay: Antifungal activity against Aspergillus fumigatus assessed as growth inhibition after 48 hr by broth dilution method
Aspergillus flavus = assay: Antifungal activity against Aspergillus flavus assessed as growth inhibition after 48 hr by broth dilution method
Escherichia coli = assay: Antibacterial activity against Escherichia coli assessed as growth inhibition after 24 hr by agar well diffusion method
Alternaria alternata = assay: Antifungal activity against Alternaria alternata assessed as growth inhibition after 48 hr by broth dilution method
Bacillus subtilis = assay: Antibacterial activity against Bacillus subtilis assessed as growth inhibition after 24 hr by agar well diffusion method
Shigella flexneri = assay: Antibacterial activity against Shigella flexneri assessed as growth inhibition after 24 hr by agar well diffusion method; on DIZ: test concentration or dose not given here
Pseudomonas aeruginosa = assay: Antibacterial activity against Pseudomonas aeruginosa assessed as growth inhibition after 24 hr by agar well diffusion method
Salmonella typhi = assay: Antibacterial activity against Salmonella enterica subsp. enterica serovar Typhi assessed as growth inhibition after 24 hr by agar well diffusion method

| Structure (SMILES) | growth inhibition (GI) (Staphylococcus aureus) | MIC (Aspergillus fumigatus) [µg/mL] | MIC (Aspergillus flavus) [µg/mL] | diameter of the inhibition zone (DIZ) (Escherichia coli) [mm] | MIC (Alternaria alternata) [µg/mL] | diameter of the inhibition zone (DIZ) (Bacillus subtilis) [mm] | diameter of the inhibition zone (DIZ) (Shigella flexneri) [mm] | growth inhibition (GI) (Pseudomonas aeruginosa) | growth inhibition (GI) (Salmonella typhi) | diameter of the inhibition zone (DIZ) (Staphylococcus aureus) [mm] | growth inhibition (GI) (Bacillus subtilis) | growth inhibition (GI) (Shigella flexneri) | diameter of the inhibition zone (DIZ) (Pseudomonas aeruginosa) [mm] | diameter of the inhibition zone (DIZ) (Salmonella typhi) [mm] |
| --- | --- | --- | --- | --- | --- | --- | --- | --- | --- | --- | --- | --- | --- | --- |
| Nc1nc(-c2ccc(Cl)cc2)cc(-c2ccc(-n3ccnc3)cc2)n1 | inactive | 1000 (≈ 2880 µM) | 1000 (≈ 2880 µM) | 18 | 1000 (≈ 2880 µM) | 12 | 11 | inactive | inactive |  |  |  |  |  |
| COc1cccc(-c2cc(-c3ccc(-n4ccnc4)cc3)nc(N)n2)c1 |  | > 1000 | 1000 (≈ 2910 µM) | 13 | 1000 (≈ 2910 µM) |  |  |  | inactive | 14 | inactive | inactive | 12 |  |
| Nc1nc(-c2ccccc2)cc(-c2ccc(-n3ccnc3)cc2)n1 | inactive | 1000 (≈ 3190 µM) | 1000 (≈ 3190 µM) | 11 | > 1000 | 13 |  | inactive | inactive |  |  | inactive |  |  |
| C[C@@H](O)[C@H]1C(=O)N2C(C(=O)O)=C(SCCNC=N)C[C@H]12 [IMIPENEM ANHYDROUS] |  |  |  | 35 |  | 30 | 30 |  |  | 30 |  |  | 31 | 25 |
| Nc1nc(-c2ccc(-n3ccnc3)cc2)cc(-c2ccc(Cl)cc2Cl)n1 |  | > 1000 | > 1000 | 14 | 1000 (≈ 2620 µM) |  | 10 | inactive | inactive | 11 | inactive |  |  |  |
| COc1ccc(-c2cc(-c3ccc(-n4ccnc4)cc3)nc(N)n2)cc1 | inactive | 1000 (≈ 2910 µM) | > 1000 | 12 | > 1000 | 14 | 11 |  | inactive |  |  |  | 11 |  |
| Nc1nc(-c2ccc(F)cc2)cc(-c2ccc(-n3ccnc3)cc2)n1 | inactive | 500 (≈ 1510 µM) | 1000 (≈ 3020 µM) | 16 | 1000 (≈ 3020 µM) |  | 12 | inactive | inactive |  | inactive |  |  |  |
| Nc1nc(-c2ccc(-n3ccnc3)cc2)cc(-c2cc(Cl)ccc2Cl)n1 | inactive | > 1000 | > 1000 | 12 | > 1000 | 12 | 12 | inactive | inactive |  |  |  |  |  |
| COc1cc(-c2cc(-c3ccc(-n4ccnc4)cc3)nc(N)n2)ccc1OO |  | > 1000 | 1000 (≈ 2660 µM) | 15 | > 1000 |  |  |  | inactive | 13 | inactive | inactive | 10 |  |
| Nc1nc(-c2ccc(Br)cc2)cc(-c2ccc(-n3ccnc3)cc2)n1 |  | 1000 (≈ 2550 µM) | 1000 (≈ 2550 µM) | 12 | > 1000 | 13 | 12 | inactive | inactive | 12 |  |  |  |  |
| Nc1nc(-c2ccc(I)cc2)cc(-c2ccc(-n3ccnc3)cc2)n1 |  | 1000 (≈ 2280 µM) | 1000 (≈ 2280 µM) | 20 | 1000 (≈ 2280 µM) | 21 |  | inactive | inactive | 16 |  | inactive |  |  |
| Nc1nc(-c2ccc(-n3ccnc3)cc2)cc(-c2ccc(Cl)c(Cl)c2Cl)n1 |  | > 1000 | > 1000 | 18 | > 1000 | 15 | 11 | inactive | inactive | 15 |  |  |  |  |
